The results in this text go back to patent US8076329B2, “Histamine H3-receptor ligands and their therapeutic applications” (Bioprojet, priority 2005, dated 2011).

“And” between values parts separate entries of the source, which are not always exact repeats. Identical values can stand only once. Like-named read-outs stand apart in the source and are kept apart here. Some results are limits rather than exact numbers.

For one data set, the target named is CYP2D6 (Homo sapiens, UniProt P10635). Kind of data set: Cytochrome inhibition, fluorometric microtiter plate assay. To be noted: human recombinant CYP2D6, substrate AMMC, compounds of the invention. The format is in vitro ADME. How it is done: (§1) The ability of drug in human to inhibit the catalytic activity of cytochrome P-450 isoforms was assayed using microtiter plate-based, fluorometric assays for the activities of the five human major CYP forms. Inhibition potential was determined in vitro after incubation of fluorescent model substrates over various incubation time with human recombinant cytochrome isoforms in the absence or in presence of increasing concentrations of test molecules (from 1 nM to 100 μM), in comparison with specific CYP isoform inhibitors.
(§2) Incubation of drug was carried out at 37° C.±0.5° C. under agitation in the presence of human recombinant cytochrome P-450 isoforms and a NADPH generating system. The incubation conditions for each cytochrome isoform were as follows: […]

The next data set deals with CYP3A4 (Homo sapiens, UniProt P08684). Described as above. The format is in vitro ADME. The conditions noted are these: human recombinant CYP3A4, substrate BFC, compounds of the invention. How it is done:
as §1, §2

Where [1] appears, read: read-out: CYP2D6 cytochrome inhibition (IC50, concentrations in μM for 50% inhibition).
[2] abbreviates: read-out: CYP3A4 cytochrome inhibition (IC50, concentrations in μM for 50% inhibition).
Setting [3] is: CYP2D6 cytochrome inhibition (IC50, concentrations in μM for 50% inhibition).
Setting [4] is: CYP3A4 cytochrome inhibition (IC50, concentrations in μM for 50% inhibition).

Sequence of CYP2D6 (P10635 whole entry, canonical isoform): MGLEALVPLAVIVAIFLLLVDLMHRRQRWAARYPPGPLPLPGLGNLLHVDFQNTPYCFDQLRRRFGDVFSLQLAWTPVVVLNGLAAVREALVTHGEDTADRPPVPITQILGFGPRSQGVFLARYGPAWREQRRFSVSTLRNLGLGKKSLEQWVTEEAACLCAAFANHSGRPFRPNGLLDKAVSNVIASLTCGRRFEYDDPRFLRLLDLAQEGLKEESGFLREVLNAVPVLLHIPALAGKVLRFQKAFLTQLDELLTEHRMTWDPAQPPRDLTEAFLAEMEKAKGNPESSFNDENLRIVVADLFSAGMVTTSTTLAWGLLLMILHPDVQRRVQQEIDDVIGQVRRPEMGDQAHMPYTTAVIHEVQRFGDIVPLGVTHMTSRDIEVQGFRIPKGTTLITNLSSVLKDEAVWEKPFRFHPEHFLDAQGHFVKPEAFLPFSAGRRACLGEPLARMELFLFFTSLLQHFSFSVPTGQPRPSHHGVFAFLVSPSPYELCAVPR
Sequence of CYP3A4 (P08684 whole entry): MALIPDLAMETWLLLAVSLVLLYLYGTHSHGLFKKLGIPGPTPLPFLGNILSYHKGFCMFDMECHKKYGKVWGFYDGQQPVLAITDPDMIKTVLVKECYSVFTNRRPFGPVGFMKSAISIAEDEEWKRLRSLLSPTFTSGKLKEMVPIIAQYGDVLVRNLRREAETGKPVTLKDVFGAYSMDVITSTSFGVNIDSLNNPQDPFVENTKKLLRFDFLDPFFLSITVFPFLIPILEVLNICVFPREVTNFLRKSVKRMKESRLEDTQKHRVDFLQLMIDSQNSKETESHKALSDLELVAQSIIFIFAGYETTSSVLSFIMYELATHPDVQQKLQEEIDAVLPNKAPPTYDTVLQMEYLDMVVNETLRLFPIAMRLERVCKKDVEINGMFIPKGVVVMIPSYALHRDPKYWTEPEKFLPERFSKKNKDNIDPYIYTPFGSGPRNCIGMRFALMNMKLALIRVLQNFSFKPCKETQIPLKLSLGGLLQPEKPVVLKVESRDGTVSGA

“1-{3-[4-(cis-4-dimethylaminocyclohex-1-yl)phenoxy]propyl}piperidine, dioxalate and 1-{3-[4-(trans-4-dimethylaminocyclohex-1-yl)phenoxy]propyl}-piperidine, dioxalate [Example 18]”: the IC50 on CYP2D6 (setting [1]) was more than 10 µM; at CYP3A4 (setting [2]) it was 43 µM and 50 µM.
`c1ccc(-c2ccc(OCCCN3CCCC3)cc2)cc1` [Example 21, 1-{3-[(biphenyl-4-yl)oxy]propyl}pyrrolidine]: the IC50 on CYP2D6 (setting [3]) and at CYP3A4 (setting [4]) was more than 10 µM in each case.
As to `Cc1ccc(-c2ccc(OCCCN3C[C@@H](C)C[C@H](C)C3)cc2)cc1` (relative stereo) [Example 27, trans-3,5-dimethyl-1-{3-[(4′-methylbiphenyl-4-yl)oxy]propyl}piperidine], the IC50 on CYP2D6 (setting [3]) is more than 10 µM; on CYP3A4 (setting [4]) it was more than 1 µM.
Regarding `c1cc([C@H]2CC[C@H](N3CCCC3)CC2)ccc1OCCCN1CCCCC1` [Example 19, 1-{3-[4-(cis-4-tetramethylenaminocyclohex-1-yl)phenoxy]propyl}piperidine, dioxalate and 1-{3-[4-(trans-4-tetramethylenaminocyclohex-1-yl)phenoxy]propyl}-piperidine, dioxalate], the IC50 on CYP2D6 (setting [3]) is more than 10 µM; on CYP3A4 (setting [4]) it was 42 µM and 48 µM.
For the compound `O[C@H]1CC[C@H](c2ccc(OCCCN3CCCC3)cc2)CC1` [Example 63, 1-{3-[trans-4-(4-hydroxycyclohexyl)phenoxy]propyl}pyrrolidine], the IC50 on CYP2D6 (setting [3]) and on CYP3A4 (setting [4]) was more than 10 µM throughout.
Take `C(=C\c1ccc(OCCCN2CCCCC2)cc1)/c1ccccc1` [Example 11, trans-1-{3-(4-styrylphenoxy)propyl]piperidine]: the values for the IC50 on CYP2D6 (setting [3]) and on CYP3A4 (setting [4]) were 5 µM and 20 µM, respectively.
Take `C=C(C)c1ccc(OCCCN2C[C@@H](C)C[C@H](C)C2)cc1` (relative stereo) [Example 10, trans-1-{3-(4-isopropenylphenoxy)propyl]-3,5-dimethylpiperidine]: the figures for the IC50 on CYP2D6 (setting [3]) and on CYP3A4 (setting [4]) were 47 µM and 30 µM, respectively.
For `CN1CCN(c2ccc(-c3ccc(OCCCN4CCCCC4)cc3)cc2)CC1` [Example 46, 1-methyl-4-[4′-(3-piperidinopropoxy)biphenyl]piperazine], in that order: more than 100 µM and 12 µM.
`O[C@H]1CC[C@H](c2ccc(OCCCN3CCCCC3)cc2)CC1` [Example 65, 1-{3-[trans-4-(4-hydroxycyclohexyl)phenoxy]propyl}piperidine]: the IC50 on CYP2D6 (setting [3]) and at CYP3A4 (setting [4]) was more than 10 µM each time.
For the compound `c1cc(-c2ccc(OCCCN3CCCCC3)cc2)ccn1` [Example 30], the figures for the IC50 on CYP2D6 (setting [3]) and at CYP3A4 (setting [4]) were 7 µM and 11 µM, respectively.
For `C[C@@H]1C[C@@H](C)CN(CCCOc2ccc(-c3ccccc3)cc2)C1` (relative stereo) [Example 22, trans-1-{3-[(biphenyl-4-yl)oxy]propyl}-3,5-dimethylpiperidine], in that order: 13 µM and 3 µM.
For `c1cc(-c2ccc(OCCCN3CCCCC3)cc2)ccc1CCCN1CCCCC1` [Example 48], in that order: 2 µM and 2 µM.
The like results for `c1cc(-c2ccc(OCCCN3CCCC3)cc2)ccc1OCCCN1CCCC1` [Example 38, di-1,1′-{(biphenyl-4,4′-diyl)bis[oxy(propan-1,3-diyl)]}pyrrolidine] were, in that order, more than 10 µM and 30 µM.
With `C[C@@H]1C[C@@H](C)CN(CCCOc2ccc(C3=NCCCC3)cc2)C1` (relative stereo) [Example 16, trans-6-{4-[3-(3,5-dimethylpiperidino)propoxy]phenyl}-2,3,4,5-tetrahydropyridine], the IC50 on CYP2D6 (setting [3]) is more than 100 µM; at CYP3A4 (setting [4]), 22 µM.
For `C[C@H]1C[C@H](C)CN(CCCOc2ccc([C@H]3CC[C@H](N(C)C)CC3)cc2)C1` [Example 12, (3S,5S)-1-{3-[4-(trans-4-dimethylaminocyclohex-1-yl)phenoxy]propyl}-3,5-dimethylpiperidine], the results for the IC50 at CYP2D6 (setting [3]) and on CYP3A4 (setting [4]) were more than 10 µM and 28 µM, respectively.
For the compound `CN1CCC(OCc2ccc(OCCCN3CCCCC3)cc2)CC1` [Example 67, 1-methyl-4-[4-(3-piperidinopropoxy)benzyloxy]piperidine], the IC50 at CYP2D6 (setting [3]) and at CYP3A4 (setting [4]) was more than 10 µM throughout.
For the compound “1-{3-[4-(cis-4-morpholinocyclohex-1-yl)phenoxy]propyl}piperidine, dihydrochloride and 1-{3-[4-(trans-4-morpholinocyclohex-1-yl)phenoxy]-propyl}piperidine, dihydro-chloride [Example 40]”, the IC50 on CYP2D6 (setting [1]) was more than 100 µM; at CYP3A4 (setting [2]) it was 66 µM.
For `C[C@@H]1C[C@@H](C)CN(CCCOc2ccc(C(C)(C)O)cc2)C1` (relative stereo) [Example 5, trans-1-{3-[4-(1-hydroxy-1-methylethyl)phenoxy]propyl}-3,5-dimethylpiperidine], the IC50 on CYP2D6 (setting [3]) is more than 10 µM; on CYP3A4 (setting [4]), 67 µM.
For `C[C@H]1CCCN(CCCOc2ccc(-c3cc[n+]([O-])cc3)cc2)C1` [Example 51, (3S)-4-{4-[3-(3-methylpiperidin-1-yl)propoxy]phenyl}pyridine 1-oxide], in that order: more than 100 µM and 72 µM.
The like results for `N#CCc1ccc(OCCCN2CCCCC2)cc1` [Example 4] were, in that order, more than 10 µM and more than 10 µM.
Consider `C(=C\c1ccc(-c2ccc(OCCCN3CCCCC3)cc2)cc1)/CN1CCCCC1` [Example 44, (E)-1-(3-{[4′-(3-piperidinoprop-1-en-1-yl)biphenyl-4-yl]oxy}propyl)piperidine], for which the IC50 on CYP2D6 (setting [3]) is more than 10 µM; on CYP3A4 (setting [4]), more than 1 µM.
The like results for `C[C@H]1C[C@H](C)CN(CCCOc2ccc(-n3cccc3)cc2)C1` (relative stereo) [Example 33, trans-3,5-dimethyl-1-{3-[4-(pyrrol-1-yl)phenoxy]propyl}piperidine] were, in that order, 3 µM and 7 µM.
`C[C@H]1CCCN(CCCOc2ccc(C3CCC(C)(O)CC3)cc2)C1` (stereo partly drawn) [Example 64, (3S)-1-{3-[4-(4-hydroxy-4-methylcyclohexyl)phenoxy]propyl}-3-methylpiperidine]: the IC50 on CYP2D6 (setting [3]) and at CYP3A4 (setting [4]) was more than 10 µM throughout.
As for `COc1ccc(-c2ccc(OCCCN3CCCCC3)cc2)cc1` [Example 25, 1-{3-[(4′-methoxybiphenyl-4-yl)oxy]propyl}piperidine], the IC50 on CYP2D6 (setting [3]) and at CYP3A4 (setting [4]) was more than 10 µM each time.
Consider `C[C@H]1C[C@H](C)CN(CCCOc2ccc([C@H]3CC[C@H](N)CC3)cc2)C1` [Example 49, (3S,5S)-1-{3-[4-(trans-4-aminocyclohex-1-yl)phenoxy]propyl}-3,5-dimethylpiperidine], for which the IC50 at CYP2D6 (setting [3]) was more than 10 µM; on CYP3A4 (setting [4]) it was 27 µM.
The like results for `C[C@@H]1C[C@@H](C)CN(CCCOc2ccc(Oc3ccccc3)cc2)C1` (relative stereo) [Example 14, trans-1-{3-[4-(phenoxy)phenoxy]propyl}-3,5-dimethylpiperidine] were, in that order, more than 10 µM and more than 10 µM.
With `C[C@H]1C[C@H](C)CN(CCCOc2ccc(C(=O)N3CCCC3)cc2)C1` (relative stereo) [Example 2, trans-1-{3-[4-(N,N-tetramethylenecarbamoyl)phenoxy]propyl}-3,5-dimethylpiperidine], the IC50 at CYP2D6 (setting [3]) and on CYP3A4 (setting [4]) was more than 10 µM in each case.
For `[O-][n+]1ccc(-c2ccc(OCCCN3CCCCC3)cc2)cc1` [Example 53, 4-[4-(3-piperidinopropoxy)phenyl]pyridine 1-oxide], the IC50 at CYP2D6 (setting [3]) stood at 64 µM; on CYP3A4 (setting [4]) it was 57 µM.
For `C[C@@H]1C[C@@H](C)CN(CCCOc2ccc(-c3ccncc3)cc2)C1` (relative stereo) [Example 31, trans-3,5-dimethyl-1-{3-[4-(4-pyridyl)phenoxy]propyl}piperidine], the IC50 at CYP2D6 (setting [3]) and at CYP3A4 (setting [4]) was 4 µM throughout.
Regarding `CN(C)[C@H]1CC[C@@H](Cc2ccc(OCCCN3CCCCC3)cc2)CC1` [Example 47, 1-{3-[4-(cis-4-dimethylaminocyclohex-1-yl)methylphenoxy]propyl}piperidine], the IC50 at CYP2D6 (setting [3]) was 107 µM; on CYP3A4 (setting [4]), 37 µM.
For `OC1CCC(c2ccc(OCCCN3CCCCC3)cc2)CC1` (stereo not drawn) [Example 60, 1-{3-[4-(4-hydroxycyclohexyl)phenoxy]propyl}piperidine], the IC50 on CYP2D6 (setting [3]) and at CYP3A4 (setting [4]) was more than 10 µM throughout.
As for `C[C@@H]1C[C@@H](C)CN(CCCOc2ccc([C@H]3CC[C@@H](N(C)C)CC3)cc2)C1` (relative stereo) [Example 20, trans-1-{3-[4-(cis-4-dimethylaminocyclohex-1-yl)phenoxy]propyl}-3,5-dimethylpiperidine, dioxalate and trans-1-{3-[4-(trans-4-dimethylaminocyclohex-1-yl)-phenoxy]propyl}-3,5-dimethylpiperidine, dioxalate], the IC50 on CYP2D6 (setting [3]) is more than 10 µM; at CYP3A4 (setting [4]) it was 38 µM and 35 µM.
In the case of `CC1CCCN(CCCOc2ccc(-c3ccccc3)cc2)C1` (racemic) [Example 26, (RS)-1-{3-[(biphenyl-4-yl)oxy]propyl}-3-methylpiperidine], the IC50 on CYP2D6 (setting [3]) came out at 14 µM; at CYP3A4 (setting [4]), 8 µM.
